How the values were obtained:
[1] = system: control sera (pooled serum of ten healthy LUMC hospital workers; commercial negative donor pooled serum from the Dutch bloodbank); format: binding, human; set-up: Binding of Control serum LUMC to linear peptides / Binding of Control serum Blood-bank to linear peptides / Binding of Control serum LUMC to looped peptides / Binding of Control Serum Blood-Bank to Looped peptides / Binding of Control serum LUMC to linear peptides of the protein M of SARS-CoV Urbani / Binding of Control serum Blood-bank to linear peptides of the protein M of SARS-CoV Urbani / Binding of Control serum LUMC to looped peptides of the protein M of SARS-CoV Urbani / Binding of Control Serum Blood-Bank to Looped peptides of the protein M of SARS-CoV Urbani: unit not given here
[2] = system: antibodies in sera from SARS patients (sera 1a, 1b, 2, 6, 37, 62, London, SARS-yellow, SARS-green); format: binding, human; set-up: Binding of serum 6 to linear peptides of protein X1 of SARS-CoV Urbani / Binding of serum 37 to linear peptides of protein X1 of SARS-CoV Urbani / Binding of serum 6 to looped/cyclic peptide (PEPSCAN-ELISA) / Binding of serum 37 to looped/cyclic peptide (PEPSCAN-ELISA) / Binding of serum 37 to looped/cyclic peptides of protein X1 of SARS-CoV Urbani / Binding of serum 6 to linear peptides of protein X2 / Binding of serum 37 to linear peptides of protein X2 / Binding of serum 37 to looped/cyclic peptides of protein X2 of SARS-CoV Urbani / Binding of serum 6 to linear peptides of protein M of SARS-CoV Urbani / Binding of serum 37 to linear peptides of protein M of SARS-CoV Urbani / Binding of serum 6 to looped/cyclic peptides of protein M of SARS-CoV Urbani / Binding of serum 37 to looped/cyclic peptides of protein M of SARS-CoV Urbani / Binding of serum 6 to linear peptides of protein X3 of SARS-CoV Urbani / Binding of serum 37 to linear peptides of protein X3 of SARS-CoV Urbani / Binding of serum 37 to looped/cyclic peptides of protein X3 of SARS-CoV Urbani / Binding of serum 6 to linear peptides of protein X4 of SARS-CoV Urbani / Binding of serum 37 to linear peptides of protein X4 of SARS-CoV Urbani / Binding of serum 37 to looped/cyclic peptides of protein X4 of SARS-CoV Urbani / Binding of serum 6 to linear peptides of protein X5 of SARS-CoV Urbani / Binding of serum 37 to linear peptides of protein X5 of SARS-CoV Urbani / Binding of serum 37 to looped/cyclic peptides of protein X5 of SARS-CoV Urbani / Binding of serum 6 to linear peptides of protein N of SARS-CoV Urbani / Binding of serum 37 to linear peptides of protein N of SARS-CoV Urbani / Binding of serum 6 to linear peptide (PEPSCAN-ELISA) / Binding of serum 1a to looped/cyclic peptides of protein N of SARS-CoV Urbani / Binding of serum 1b to looped/cyclic peptides of protein N of SARS-CoV Urbani / Binding of serum 2 to looped/cyclic peptides of protein N of SARS-CoV Urbani / Binding of serum 6 to looped/cyclic peptides of protein N of SARS-CoV Urbani / Binding of serum 37 to looped/cyclic peptides of protein N of SARS-CoV Urbani / Binding of serum 62 to looped/cyclic peptides of protein N of SARS-CoV Urbani / Binding of serum London to looped/cyclic peptides of protein N of SARS-CoV Urbani / Binding of serum SARS-green to looped/cyclic peptides of protein N of SARS-CoV Urbani: unit not given here
[3] = system: rabbit serum obtained by immunizing a rabbit with the SARS-CoV strain Frankfurt 1; format: binding; set-up: Binding of a rabbit serum to linear peptides / Binding of a rabbit serum to looped peptides / Rabbit serum linear peptides / Rabbit serum looped peptides / Binding of a rabbit serum to linear peptides of protein N of SARS-CoV Urbani (Rabbit serum linear peptides) / Binding of a rabbit serum to looped/cyclic peptides of protein N of SARS-CoV Urbani (Rabbit serum looped peptides): unit not given here

## QLLEQWNLVIGFLFL
[1]
  Binding of Control Serum Blood-Bank to Looped peptides of the protein M of SARS-CoV Urbani: 0.5
  Binding of Control serum Blood-bank to linear peptides of the protein M of SARS-CoV Urbani: 0.5
  Binding of Control serum LUMC to linear peptides of the protein M of SARS-CoV Urbani: 0.3
  Binding of Control serum LUMC to looped peptides of the protein M of SARS-CoV Urbani: 0.7
[2]
  Binding of serum 1a to linear peptides of protein M of SARS-CoV Urbani: 0.7
  Binding of serum 1a to looped/cyclic peptides of protein M of SARS-CoV Urbani: 0.5
  Binding of serum 1b to linear peptides of protein M of SARS-CoV Urbani: 0.4
  Binding of serum 1b to looped/cyclic peptides of protein M of SARS-CoV Urbani: 0.5
  Binding of serum 2 to linear peptides of protein M of SARS-CoV Urbani: 0.5
  Binding of serum 2 to looped/cyclic peptides of protein M of SARS-CoV Urbani: 0.4
  Binding of serum 6 to linear peptides of protein M of SARS-CoV Urbani: 0.4
  Binding of serum 6 to looped/cyclic peptides of protein M of SARS-CoV Urbani: 0.5
  Binding of serum 37 to linear peptides of protein M of SARS-CoV Urbani: 0.6
  Binding of serum 37 to looped/cyclic peptides of protein M of SARS-CoV Urbani: 0.5
  Binding of serum 62 to linear peptides of protein M of SARS-CoV Urbani: 0.6
  Binding of serum 62 to looped/cyclic peptides of protein M of SARS-CoV Urbani: 0.4
  Binding of serum London to linear peptides of protein M of SARS-CoV Urbani: 0.4
  Binding of serum London to looped/cyclic peptides of protein M of SARS-CoV Urbani: 0.2
  Binding of serum SARS-green to linear peptides of protein M of SARS-CoV Urbani: 0.2
  Binding of serum SARS-green to looped/cyclic peptides of protein M of SARS-CoV Urbani: 0.3
  Binding of serum SARS-yellow to linear peptides of protein M of SARS-CoV Urbani: 0.0
  Binding of serum SARS-yellow to looped/cyclic peptides of protein M of SARS-CoV Urbani: 0.7
[3]
  Rabbit serum linear peptides: 0.2
  Rabbit serum looped peptides: 0.0

## QLRARSVSPKLFIRQ
[1]
  Binding of Control Serum Blood-Bank to Looped peptides: 0.9
  Binding of Control serum Blood-bank to linear peptides: 0.7
  Binding of Control serum LUMC to linear peptides: 0.6
  Binding of Control serum LUMC to looped peptides: 0.8
[2]
  Binding of serum 1a to linear peptides of protein X4 of SARS-CoV Urbani: 0.7
  Binding of serum 1a to looped/cyclic peptides of protein X4 of SARS-CoV Urbani: 0.7
  Binding of serum 1b to linear peptides of protein X4 of SARS-CoV Urbani: 0.6
  Binding of serum 1b to looped/cyclic peptides of protein X4 of SARS-CoV Urbani: 0.6
  Binding of serum 2 to linear peptides of protein X4 of SARS-CoV Urbani: 0.6
  Binding of serum 2 to looped/cyclic peptides of protein X4 of SARS-CoV Urbani: 0.8
  Binding of serum 6 to linear peptides of protein X4 of SARS-CoV Urbani: 0.9
  Binding of serum 6 to looped/cyclic peptides of protein X4 of SARS-CoV Urbani: 0.9
  Binding of serum 37 to linear peptides of protein X4 of SARS-CoV Urbani: 0.7
  Binding of serum 37 to looped/cyclic peptides of protein X4 of SARS-CoV Urbani: 0.6
  Binding of serum 62 to linear peptides of protein X4 of SARS-CoV Urbani: 0.7
  Binding of serum 62 to looped/cyclic peptides of protein X4 of SARS-CoV Urbani: 0.6
  Binding of serum London to linear peptides of protein X4 of SARS-CoV Urbani: 0.8
  Binding of serum London to looped/cyclic peptides of protein X4 of SARS-CoV Urbani: 0.4
  Binding of serum SARS-green to linear peptides of protein X4 of SARS-CoV Urbani: 0.6
  Binding of serum SARS-green to looped/cyclic peptides of protein X4 of SARS-CoV Urbani: 0.4
  Binding of serum SARS-yellow to linear peptides of protein X4 of SARS-CoV Urbani: 0.3
  Binding of serum SARS-yellow to looped/cyclic peptides of protein X4 of SARS-CoV Urbani: 0.8
[3]
  Recognition of the peptide by the rabbit serum: recognized

## QLSLLKVTAFQHQNS
[1]
  Binding of Control Serum Blood-Bank to Looped peptides: 0.5
  Binding of Control serum Blood-bank to linear peptides: 0.4
  Binding of Control serum LUMC to linear peptides: 0.6
  Binding of Control serum LUMC to looped peptides: 0.6
[2]
  Binding of serum 1a to linear peptides of protein X2: 0.5
  Binding of serum 1a to looped/cyclic peptides of protein X2 of SARS-CoV Urbani: 0.5
  Binding of serum 1b to linear peptides of protein X2: 0.4
  Binding of serum 1b to looped/cyclic peptides of protein X2 of SARS-CoV Urbani: 0.5
  Binding of serum 2 to linear peptides of protein X2: 0.3
  Binding of serum 2 to looped/cyclic peptides of protein X2 of SARS-CoV Urbani: 0.3
  Binding of serum 6 to linear peptides of protein X2: 0.4
  Binding of serum 6 to looped/cyclic peptides of protein X2 of SARS-CoV Urbani: 0.3
  Binding of serum 37 to linear peptides of protein X2: 0.5
  Binding of serum 37 to looped/cyclic peptides of protein X2 of SARS-CoV Urbani: 0.4
  Binding of serum 62 to linear peptides of protein X2: 0.3
  Binding of serum 62 to looped/cyclic peptides of protein X2 of SARS-CoV Urbani: 0.6
  Binding of serum London to linear peptides of protein X2: 0.3
  Binding of serum London to looped/cyclic peptides of protein X2 of SARS-CoV Urbani: 0.3
  Binding of serum SARS-green to linear peptides of protein X2: 0.1
  Binding of serum SARS-green to looped/cyclic peptides of protein X2 of SARS-CoV Urbani: 0.2
  Binding of serum SARS-yellow to linear peptides of protein X2: 0.1
  Binding of serum SARS-yellow to looped/cyclic peptides of protein X2 of SARS-CoV Urbani: 0.3
[3]
  Binding of a rabbit serum to linear peptides: 0.6
  Binding of a rabbit serum to looped peptides: 0.5

## QQELYSPLFLIVAAL
[1]
  Binding of Control Serum Blood-Bank to Looped peptides: 0.6
  Binding of Control serum Blood-bank to linear peptides: 0.5
  Binding of Control serum LUMC to linear peptides: 0.4
  Binding of Control serum LUMC to looped peptides: 0.6
[2]
  Binding of serum 1a to linear peptides of protein X4 of SARS-CoV Urbani: 0.7
  Binding of serum 1a to looped/cyclic peptides of protein X4 of SARS-CoV Urbani: 0.7
  Binding of serum 1b to linear peptides of protein X4 of SARS-CoV Urbani: 0.5
  Binding of serum 1b to looped/cyclic peptides of protein X4 of SARS-CoV Urbani: 0.4
  Binding of serum 2 to linear peptides of protein X4 of SARS-CoV Urbani: 0.5
  Binding of serum 2 to looped/cyclic peptides of protein X4 of SARS-CoV Urbani: 0.6
  Binding of serum 6 to linear peptides of protein X4 of SARS-CoV Urbani: 0.7
  Binding of serum 6 to looped/cyclic peptides of protein X4 of SARS-CoV Urbani: 0.4
  Binding of serum 37 to linear peptides of protein X4 of SARS-CoV Urbani: 0.7
  Binding of serum 37 to looped/cyclic peptides of protein X4 of SARS-CoV Urbani: 0.6
  Binding of serum 62 to linear peptides of protein X4 of SARS-CoV Urbani: 0.6
  Binding of serum 62 to looped/cyclic peptides of protein X4 of SARS-CoV Urbani: 0.6
  Binding of serum London to linear peptides of protein X4 of SARS-CoV Urbani: 0.8
  Binding of serum London to looped/cyclic peptides of protein X4 of SARS-CoV Urbani: 0.3
  Binding of serum SARS-green to linear peptides of protein X4 of SARS-CoV Urbani: 0.6
  Binding of serum SARS-green to looped/cyclic peptides of protein X4 of SARS-CoV Urbani: 0.5
  Binding of serum SARS-yellow to linear peptides of protein X4 of SARS-CoV Urbani: 0.6
  Binding of serum SARS-yellow to looped/cyclic peptides of protein X4 of SARS-CoV Urbani: 0.7
[3]
  Rabbit serum linear peptides: 0.4
  Rabbit serum looped peptides: 0.4
